# ChEMBL document CHEMBL1133047, “Synthesis of neurotensin(9-13) analogues exhibiting enhanced human neurotensin receptor binding affinities” (Bioorg Med Chem Lett, 2000)
# Where a SMILES comes first, the peptide text is derived from it. The star is where a group is joined. X1 = [N-]=[N+]=N[C@@H](CCCNCCN1CCNCC1)C(=O)*; X5 = [N-]=[N+]=N[C@@H](CCCNCCNCCN)C(=O)*; X2 = [N-]=[N+]=N[C@@H](CCCNCCCCN)C(=O)*; X4 = [N-]=[N+]=N[C@@H](CCCNCCCN)C(=O)*; X3 = [N-]=[N+]=N[C@@H](CCCNCCN)C(=O)*
# Target: Neurotensin receptor type 1 (Homo sapiens, UniProt P30989)
# Sequence (P30989 whole entry): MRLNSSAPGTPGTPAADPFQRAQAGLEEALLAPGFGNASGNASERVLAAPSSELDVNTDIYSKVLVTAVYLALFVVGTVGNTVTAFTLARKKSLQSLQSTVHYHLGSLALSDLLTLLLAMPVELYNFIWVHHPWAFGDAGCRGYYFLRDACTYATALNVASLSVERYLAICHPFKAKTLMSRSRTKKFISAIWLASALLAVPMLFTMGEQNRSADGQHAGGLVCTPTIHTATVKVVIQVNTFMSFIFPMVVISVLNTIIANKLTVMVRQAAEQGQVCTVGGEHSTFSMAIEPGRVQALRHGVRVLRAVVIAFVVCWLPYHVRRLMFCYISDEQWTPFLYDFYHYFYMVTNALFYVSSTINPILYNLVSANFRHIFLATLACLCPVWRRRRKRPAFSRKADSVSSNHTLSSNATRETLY
# Assay: Compound was evaluated for the binding affinity against human neurotensin receptor (hNTR)-1 expressed in CHO cells
# Type: cell-based
row,Structure (SMILES),IC50 [nM]
1,CC[C@H](C)[C@H](NC(=O)[C@H](Cc1ccc(O)cc1)NC(=O)[C@@H]1CCCN1C(=O)[C@H](CCCN)NC(=O)[C@@H](N)CCCN)C(=O)N[C@@H](CC(C)C)C(=O)O,1.3
2,CC[C@H](C)[C@H](NC(=O)[C@H](Cc1ccc(O)cc1)NC(=O)[C@@H]1CCCN1C(=O)[C@@H](N)CCCNC(=N)N)C(=O)N[C@@H](CC(C)C)C(=O)O,19
3,CC[C@H](C)[C@H](NC(=O)[C@H](Cc1ccc(O)cc1)NC(=O)[C@@H]1CCCN1C(=O)[C@H](CCCNCCN1CCNCC1)N=[N+]=[N-])C(=O)N[C@@H](CC(C)C)C(=O)O (X1-PYIL-OH),28
4,CC[C@H](C)[C@H](NC(=O)[C@H](Cc1ccc(O)cc1)NC(=O)[C@@H]1CCCN1C(=O)[C@H](CCCNCCCCN)N=[N+]=[N-])C(=O)N[C@@H](CC(C)C)C(=O)O (X2-PYIL-OH),9.3
5,CC[C@H](C)[C@H](NC(=O)[C@H](Cc1ccc(O)cc1)NC(=O)[C@@H]1CCCN1C(=O)[C@H](CCCNCCN)N=[N+]=[N-])C(=O)N[C@@H](CC(C)C)C(=O)O (X3-PYIL-OH),14.7
6,CC[C@H](C)[C@H](NC(=O)[C@H](Cc1ccc(O)cc1)NC(=O)[C@@H]1CCCN1C(=O)[C@H](CCCNCCCN)N=[N+]=[N-])C(=O)N[C@@H](CC(C)C)C(=O)O (X4-PYIL-OH),3.9
7,CC[C@H](C)[C@H](NC(=O)[C@H](Cc1ccc(O)cc1)NC(=O)[C@@H]1CCCN1C(=O)[C@H](CCCNCCNCCN)N=[N+]=[N-])C(=O)N[C@@H](CC(C)C)C(=O)O (X5-PYIL-OH),8.8
